Experimental data as given in a melting point compilation (Tetko et al.; mined from patent text by program, amines drawn as free bases though some values may be those of a salt).

`CC(C)c1cc(C(C)C)c(CCC(=O)O)c(C(C)C)c1` gave a melting point of 194 to 196 °C. With `Brc1ccc(C#CC#Cc2ccc(Br)cc2)cc1` the melting point was 264 to 265 °C. For `COc1ccc2c(CBr)c(Br)ccc2c1C(F)(F)F`, the melting point was 142 to 143 °C. With `O=C(CCN1CCOCC1)Nc1ccc2c(=O)c3ccc(NC(=O)CCN4CCOCC4)cc3[nH]c2c1` the melting point was over 320 °C. `CC(C)Oc1c(C(N)=O)n(C)c2ccc(O)cc12` gave a melting point of 234 to 237 °C. `CCCc1c(OCCCSc2nnc(SCC(=O)N(C)O)s2)ccc(C(C)=O)c1O` showed a melting point of 97 to 99 °C. For `CS(=O)(=O)c1ccc(-c2c(-c3ccc(F)cc3)c(=O)n3n2Cc2c(Cl)cccc2-3)cc1`, the melting point was 237 to 240 °C. Molecule `C=CCS(=O)c1ncc(Cl)cn1` (stereo not given) has a melting point of 82 °C. `FC(F)(F)c1nnc2sc3ccccc3n12` gave a melting point of 140 to 141 °C. Molecule `CCCOC(=O)C1=C(C)NC(C)=C(C(=O)N[C@H](C(=O)OCC)C(C)C)[C@@H]1c1cccc([N+](=O)[O-])c1` has a melting point of 119 to 121 °C. `CN1Cc2c(/C=C\Cl)ncn2-c2ccccc2C1=O` showed a melting point of 197 to 199 °C. In the case of `CS(=O)(=O)N1CCN(c2cc3ccccc3c(=O)[nH]2)CC1`, the melting point was 257 to 259 °C. Work on `CNc1nc(-c2ccc(Br)cc2)cs1` yielded a melting point of 147 °C. `COc1cccc2c1CC(N=[N+]=[N-])C(O)C2` (stereo not given) gave a melting point of 83 to 84 °C. With `COC(=O)C(C)=C(C(=O)OC)C1C=CC=CC1(C)C(C(=O)OC)=C(C)C(=O)OC` (stereo not given) the melting point was 90 °C. For `CC(C)(C)OC(=O)N1CCN(c2ccc(N)cc2)CC1`, the melting point was 95 to 96 °C. Molecule `Cc1ncc(-c2ccccc2)c(-c2ccc3c(c2)NC(=O)CO3)n1` has a melting point of 229 °C. Molecule `N#Cn1c(-c2ccc(Cl)cc2)c([N+](=O)[O-])c(-c2ccc(Cl)c(Cl)c2)c1C(F)(F)F` has a melting point of 98 to 100 °C. For `COc1ccc2c(c1)CC(=O)N2Nc1ccncc1`, the melting point was 169 to 171 °C. Molecule `CN(C(=O)C(F)(F)F)C(C(=O)O)c1ccc(Cl)cc1` (stereo not given) has a melting point of 117 to 118 °C. In the case of `COc1ccc(CBr)c(Cl)c1Cl`, the melting point was 101 to 102 °C. `COc1cccc(P(=O)(c2ccc(C)cc2)c2ccc(C)cc2)c1` gave a melting point of 96 to 98 °C. `CCOC(=O)C1=C(C)NN=C(C(=O)OC)C1c1cccc([N+](=O)[O-])c1` (stereo not given) gave a melting point of 176 °C. Molecule `CC1(C)C(=O)Nc2ccc(C3(C#N)C=CC=N3)cc21` (stereo not given) has a melting point of 256 to 258 °C. For `CC(C)(C)OC(=O)NCCNC(=O)c1ncccc1Oc1cccc(Cl)c1`, the melting point was 86 to 87 °C. `CCN1c2ncccc2C(=O)Nc2c(C)cc(NCCO)nc21` showed a melting point of 241 to 244 °C. Work on `COc1ccc2c(=O)[nH]nc(C)c2c1` yielded a melting point of 252 to 254 °C. For `O=C(O)C(F)c1cccc(OCc2ccccc2Cl)c1OCc1ccccc1Cl` (stereo not given), the melting point was 92 to 94 °C. In the case of `O=C(NC(=O)c1ccccc1)NC1CCC(=O)c2sccc21` (stereo not given), the melting point was 187 to 190 °C. `COC(=O)c1coc(-c2ccc(NS(=O)(=O)c3sc4ccc(F)cc4c3C)c(S(C)(=O)=O)c2)n1` showed a melting point of 290 to 292 °C. Work on `CCOC(=O)c1[nH]c(CC)nc1C(C)(C)O` yielded a melting point of 181 to 184 °C. In the case of `CC(C)(C)OC(=O)NC1CNc2c(cc(Br)cc2[N+](=O)[O-])C1` (stereo not given), the melting point was 193 to 195 °C. `c1ccc(Cn2nc(-c3ccncc3)nc2-c2ccncc2)cc1` showed a melting point of 136 to 138 °C. For `COC(=O)c1c(C)nc(C)c(C(=O)O)c1-c1ccccc1[N+](=O)[O-]`, the melting point was 232 to 233 °C. With `CCC(=O)NCC[C@@H]1CCc2cc(Br)c(O)cc21` the melting point was 146 to 148 °C. In the case of `CC(=O)OC1CSC(Oc2ccc(C#N)nc2)C(OC(C)=O)C1OC(C)=O` (stereo not given), the melting point was 147 °C. Molecule `COc1cc(-c2nc3ccc(OCCN4CCCCC4)cc3n2Cc2ccccc2Br)cc(OC)c1OC` has a melting point of 145 °C. Molecule `COCc1cc2c(NC(=S)N3Cc4ccccc4CC3CCO)cccc2cn1` (racemic) has a melting point of 152 °C. In the case of `CC(=O)N1C(C(=O)NCCO[N+](=O)[O-])CSC1c1ccccc1C(=O)O` (stereo not given), the melting point was 148 to 150 °C. In the case of `O=C1c2ccccc2C(O)(c2ccc(Cl)cc2)N1Cc1ccc(Cl)cc1` (stereo not given), the melting point was 156 to 157 °C. `Nc1ccc2ccccc2c1S` showed a melting point of 108 to 110 °C. `CN(C)c1ccc(Nc2ncc(C(=O)O)c(=O)[nH]2)cc1` gave a melting point of 261 to 263 °C. In the case of `O=C(CCCCC(=O)Oc1ccc(C(=O)OCc2ccccc2)cc1)Oc1ccc(C(=O)OCc2ccccc2)cc1`, the melting point was 93 to 93.5 °C. With `O=C(CN1CCC(Cc2ccccc2)CC1)Nc1ccc([N+](=O)[O-])cc1` the melting point was 126 to 128 °C. `CCc1cc(OC)c(O)c([N+](=O)[O-])c1` showed a melting point of 59 to 61 °C. With `CC[Si](CC)(c1ccc(N(c2ccccc2)c2ccccc2)cc1)c1ccc(N(c2ccccc2)c2ccccc2)cc1` the melting point was 154 to 155 °C. For `O=C(Cc1ccccc1C1CCCC1)N[C@H]1CCN(CCc2ccccc2)C1`, the melting point was 117 to 119 °C. Molecule `c1ccc(-c2ccc(N(c3ccccc3)c3ccccc3)cc2)cc1` has a melting point of 117 to 118 °C. Work on `Cc1cc(C)cc(C(=O)c2c(C(C)C)c(=O)[nH]c(=O)n2C/C=C/CN=[N+]=[N-])c1` yielded a melting point of 126 to 127 °C. `CCCc1nnc(-c2ccc([N+](=O)[O-])cc2)n1-c1ccc(OC)cc1` showed a melting point of 140 °C. `Cc1nc(-c2cccc(CN3C(=O)C4(COc5cc6c(cc54)CCO6)c4ccccc43)c2)no1` (stereo not given) showed a melting point of 209 to 213 °C. `COC(=O)Cc1ccc(C(O)(C#N)c2ccccc2)n1C` (stereo not given) gave a melting point of 137 to 138 °C. `CCOC(=O)CC(NS(=O)(=O)c1cccc(-c2cccc(NC(=NC#N)NC3CC3)c2)c1)c1ccccc1` (stereo not given) gave a melting point of 82 °C. Molecule `CC(C)C[C@H](NC(=O)COc1ccc(Cl)cc1)C(=O)N[C@@H](Cc1ccccc1)C(=O)CSCc1ccco1` has a melting point of 116 to 117 °C. `CN1C(=O)c2ccccc2N=C(N)C1c1ccccc1` (stereo not given) showed a melting point of 282 to 286 °C. In the case of `COc1cccc2c3c(c(=O)[nH]c12)CCN3c1ccccc1C`, the melting point was 166 to 168 °C. Molecule `CON1C(=O)CC2(CCN(CNC(=O)c3ccccc3O)CC2)C1=O` has a melting point of 96 to 99 °C. With `NC1CC2c3ccccc3Cc3ccccc3N2C1=O` (stereo not given) the melting point was 186 to 188 °C. `COCc1c(-c2csc(C)n2)ncc2c1c1cc(OCc3ccccc3)ccc1n2S(=O)(=O)c1ccc(C)cc1` showed a melting point of 173 to 175 °C. `NS(=O)(=O)c1cncc(-c2cn(-c3cc(C(F)(F)F)cc(-c4ccc(C(F)(F)F)cc4)n3)cn2)c1` gave a melting point of over 250 °C. With `CC(C)(O)Cc1nc2cnc3ccccc3c2s1` the melting point was 155 to 157 °C. In the case of `CC(C)C[C@H](NS(=O)(=O)c1cccnc1)C(=O)N[C@@H](C(C)C)[C@@H](O)c1c(-c2ccccc2)c1=O`, the melting point was 110 to 112 °C. For `c1ccc(OCCSCc2nnc(-c3ccc(OCCN4CCCCCC4)cc3)o2)cc1`, the melting point was 40 °C. For `CN1CC(C(=O)COC(=O)c2cncc(Br)c2)CC2c3cccc4[nH]cc(c34)CC21` (stereo not given), the melting point was 185 to 187 °C. Work on `O=c1[nH]c2ccc([C@H]3CC[C@H](NCCCc4ccccc4)CC3)cc2o1` yielded a melting point of 166 to 170 °C. With `CCOC(=O)c1ccc(NCc2ccc(OCc3ccccc3)cc2)cc1` the melting point was 144 to 146 °C. In the case of `O=C1CCC(N2C(=O)c3cccc(OCc4ccc5ccccc5n4)c3C2=O)C(=O)N1` (stereo not given), the melting point was 254 to 256 °C. With `CCCCOC(=O)c1cc(=NS(=O)(=O)c2ccccc2)c2c(Cl)cc(Cl)cc2[nH]1` the melting point was 94 to 95 °C. `COc1ccc(CS(=O)c2cc(OC)c(OC)c(OC)c2)cc1` (stereo not given) showed a melting point of 103 to 105 °C. `CC(C)NC(=O)NC[C@H](C)NC(=O)OC(C)(C)C` showed a melting point of 101 °C. `COc1cc2c(cc1OCc1ccccc1)CCCC(C(=O)O)=C2` showed a melting point of 163 to 165 °C. `Cn1c(=O)n(OCc2ccccc2)c(=O)c2cc(F)c(F)cc21` showed a melting point of 167 to 169 °C. `O=C(O)C(Cc1ccccc1)C(=O)NOCc1ccccc1` (stereo not given) gave a melting point of 147 °C. `CC(=O)OC1CC2CCC3C(CCC4(C)C(O)C(N5CCCCC5)CC34)C2(C)CC1N1CCOCC1` (stereo not given) gave a melting point of 148 to 152 °C. For `O=C(NC(=S)Nc1cccc(Oc2ccccc2)c1)c1cccnc1`, the melting point was 144 to 146 °C. `O=c1[nH]nc2n1-c1ccc(Cl)nc1C(c1ccccc1)=NC2` showed a melting point of 222 to 224 °C. `Fc1ccc(-c2nc(-c3ccccc3)cn2-c2ccncc2)cc1` showed a melting point of 90 to 92 °C. Work on `COc1ccc(O)c(C(=O)c2ccc(O)cc2)c1` yielded a melting point of 144 to 148 °C. Molecule `CCC1=NNC(C)=C(C(=O)OC(C)(C)C)C1c1cccc([N+](=O)[O-])c1` (stereo not given) has a melting point of 122 °C. In the case of `CCOC(=O)CC(=O)c1cc2cc(F)c(F)c(F)c2nc1Cl`, the melting point was 78 to 80 °C. Molecule `COc1cc(Nc2c(C#N)cnc3cc(-c4ccc(CN5CCOCC5)cc4)c(OC)cc23)c(Cl)cc1Cl` has a melting point of 108 to 110 °C. For `N#Cc1ccc2cc(C(N)=O)[nH]c2c1`, the melting point was 241 to 242 °C. Work on `Cc1ncn(C)c1-c1nc(C2CC2)no1` yielded a melting point of 88 °C. With `CNC(N)=C(CCSCc1csc(CN(C)C)n1)[N+](=O)[O-]` the melting point was 130 to 132 °C. With `Cc1cc(Cl)cc(C)c1NC(=O)Oc1ccccc1` the melting point was 158 to 160 °C. `O=C1OC2(CCc3ccccc32)c2ccccc21` (stereo not given) gave a melting point of 138 to 139 °C. Molecule `CSc1ccc(C(=O)c2c(C)sc3c2CCC3C(=O)O)cc1` (stereo not given) has a melting point of 131 to 133 °C. In the case of `CS(=O)(=O)c1c(N)nc(N)nc1Cl`, the melting point was 256 to 258 °C. Molecule `COc1cc2nc(N)nc(-c3cccc(OC(F)(F)F)c3)c2cc1OC` has a melting point of 233 to 235 °C. With `CC1(C)CCC(C)(C)c2cc(-c3cc([N+](=O)[O-])ccc3OS(=O)(=O)C(F)(F)F)ccc21` the melting point was 87 to 89 °C. Work on `Brc1cncc2ncc(Br)n12` yielded a melting point of 150 °C. Work on `CCCCc1nc(SC)c(C(=O)OCC)n1Cc1ccccc1-c1cccc(S(=O)(=O)NC#N)c1` yielded a melting point of 108 °C. Work on `Cc1ccc(S(=O)(=O)OCC2COc3ccc4ccccc4c3O2)cc1` (stereo not given) yielded a melting point of 122 to 124 °C. `CCOC(=O)c1cn2c(ccc3ccc(OC)cc32)n1` gave a melting point of 146 to 148 °C. Molecule `COc1cc(C)c2c(c1C)CC(=O)N2` has a melting point of 262 to 263 °C. `CCOC(=O)C1(C(=O)OCC)CCC2(NCCc3cc(OC)c(OC)cc32)C(C2c3cc(OC)c(OC)cc3CCN2CC)C1` (stereo not given) gave a melting point of 146 to 147 °C. `C=C(Oc1cc(-n2c(=O)cc(C(F)(F)F)n(N)c2=O)c(F)cc1Cl)C(=O)OC` showed a melting point of 66 °C. With `O=c1ccn(-c2cccc(Oc3nc4ccccc4[nH]3)c2)nc1-c1ccnn1-c1ccccc1` the melting point was 149 to 150 °C. With `COC(=O)c1ccn(C)c1S(=O)(=O)NC(C)(C)C` the melting point was 105 to 108 °C. `COc1ccc(CC(=O)c2ccc(OC)c(F)c2)cc1` showed a melting point of 142 to 143 °C.
